Reference: ChEMBL document CHEMBL1221163, “Monocarboxylate transporter MCT1 is a target for immunosuppression” (Nat Chem Biol, 2005)
Active and inactive are the calls of the source. No cut-off for these calls is given here.

Legend:
[1] = system: T-cell; assay: Inhibition of DNA synthesis in PMA-ionomycin stimulated human T cells after 4 hrs by [3H]thymidine incorporation assay; format: functional, cell-based
[2] = system: T-cell; assay: Reduction in extracellular lactate production in PMA-ionomycin stimulated human T cells after 4 hrs; format: functional, cell-based
[3] = Antiproliferative activity against human T cells assessed as inhibition of PMA-ionomycin stimulated cell proliferation after 3 days by [3H]thymidine incorporation assay; format: functional, cell-based
[4] = system: T-cell; assay: Increase in intracellular lactate production in PMA-ionomycin stimulated human T cells after 4 hrs; format: functional, cell-based
[5] = target: T1, Monocarboxylate transporter 1 (Homo sapiens, UniProt P53985); assay: Displacement of [3H]5-[(3-hydroxypropyl)thio]-3-methyl-1-[2-(methyl-t)propyl-2,3-t2]-6-(1-naphthalenylmethyl)-1H-pyrrolo[3,4-d]pyrimidine-2,4(3H,6H)-dione from MCT1 in human Jurkat cell membranes
T1 sequence (P53985 whole entry): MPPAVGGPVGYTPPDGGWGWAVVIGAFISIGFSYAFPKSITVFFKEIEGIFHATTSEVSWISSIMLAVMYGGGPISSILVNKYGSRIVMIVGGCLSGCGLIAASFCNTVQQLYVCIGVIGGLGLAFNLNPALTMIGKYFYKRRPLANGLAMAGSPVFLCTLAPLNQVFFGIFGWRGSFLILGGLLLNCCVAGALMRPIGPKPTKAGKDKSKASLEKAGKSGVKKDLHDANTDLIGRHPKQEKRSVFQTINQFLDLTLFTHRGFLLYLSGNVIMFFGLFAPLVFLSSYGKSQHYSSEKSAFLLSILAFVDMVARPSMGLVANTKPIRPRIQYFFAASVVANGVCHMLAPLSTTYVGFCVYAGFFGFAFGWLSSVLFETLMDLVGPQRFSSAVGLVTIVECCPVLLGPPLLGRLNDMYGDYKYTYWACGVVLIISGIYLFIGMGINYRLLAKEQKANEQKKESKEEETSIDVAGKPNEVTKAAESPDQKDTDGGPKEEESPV

[6] = target: T2, Monocarboxylate transporter 1 (Rattus norvegicus) (UniProt P53987); assay: 6-[[4-azido-3-(iodo-125I)phenyl]methyl]-2,6-dihydro-2-methyl-4-(2-methylpropyl)-1H-pyrrolo[3,4-d]pyridazin-1-one from MCT1 in rat RBC membranes at 50 nM by photoaffinity labeling study; format: cell membranes
T2 sequence (whole entry): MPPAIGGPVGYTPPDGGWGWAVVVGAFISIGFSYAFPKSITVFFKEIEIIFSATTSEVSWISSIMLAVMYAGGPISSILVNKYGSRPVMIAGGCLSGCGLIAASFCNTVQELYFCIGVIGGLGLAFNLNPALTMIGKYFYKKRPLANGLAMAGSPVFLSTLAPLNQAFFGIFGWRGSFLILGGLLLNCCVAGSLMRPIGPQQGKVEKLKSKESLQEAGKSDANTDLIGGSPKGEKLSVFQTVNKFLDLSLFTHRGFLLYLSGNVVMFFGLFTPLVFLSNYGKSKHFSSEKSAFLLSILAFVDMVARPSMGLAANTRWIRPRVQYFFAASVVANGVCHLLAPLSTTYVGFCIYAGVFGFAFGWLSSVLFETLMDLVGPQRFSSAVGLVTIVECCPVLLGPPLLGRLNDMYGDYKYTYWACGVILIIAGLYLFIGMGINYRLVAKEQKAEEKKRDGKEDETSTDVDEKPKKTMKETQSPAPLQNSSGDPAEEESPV

[7] = system: PBMC; assay: Antiproliferative activity against human PBMC assessed as inhibition of PMA/ionomycin-stimulated cell proliferation by [3H]thymidine incorporation assay; format: functional, cell-based
[8] = target: T1, Monocarboxylate transporter 1; assay: Displacement of [3H]5-[(3-hydroxypropyl)thio]-3-methyl-1-[2-(methyl-t)propyl-2,3-t2]-6-(1-naphthalenylmethyl)-1H-pyrrolo[3,4-d]pyrimidine-2,4(3H,6H)-dione from human MCT1 expressed in INS1 cell membrane; format: cell membranes; settings: read-out: pKi (converted)
[9] = system: T-cell; assay: Antiproliferative activity against Lewis rat T cells assessed as inhibition of PMA-ionomycin stimulated cell proliferation by [3H]thymidine incorporation assay; format: functional, cell-based
[10] = system: T-cell; assay: Antiproliferative activity against human T cells assessed as inhibition of PMA-ionomycin stimulated cell proliferation by [3H]thymidine incorporation assay; format: functional, cell-based
[11] = target: T2, Monocarboxylate transporter 1 (Rattus norvegicus); assay: 6-[[4-azido-3-(iodo-125I)phenyl]methyl]-2,6-dihydro-2-methyl-4-(2-methylpropyl)-1H-pyrrolo[3,4-d]pyridazin-1-one from MCT1 in rat RBC ghost membranes at 1 uM by photoaffinity labeling study; format: cell membranes
[12] = target: T3, Monocarboxylate transporter 1 (Homo sapiens) (UniProt P53985); settings: INS1, 10 nM
T3 sequence (whole entry): T1 sequence (P53985 whole entry)

[13] = system: T-cell; assay: Inhibition of conversion of [1,2-13C2]glucose into [2,3-13C2]lactate in PMA-ionomycin stimulated human T cells at 10 nM after 6 hrs by GC-MS method; format: functional, cell-based
[14] = system: Rattus norvegicus; assay: Inhibition of graft-versus-host response-induced lymph node expansion in DA/Lewis recipient rat administered once daily through subcutaneous route; format: functional; settings: sc

Row | SMILES | IC50 [1] [nM] | IC50 [2] [nM] | IC50 [3] [nM] | IC50 [4] [nM] | Ki [5] [nM] | IC50 [7] [nM] | inhibition [9] | inhibition [10] | inhibition [7] | also measured
1 | CC(C)Cn1c(=O)n(C)c(=O)c2c(C(=O)N3CC[C@@H](O)C3)c(Cc3c[nH]c4ccccc34)sc21 | 3.31 | 4.27 | 0.912 | 1.55 |  |  |  |  |  | 
2 | CC(C)Cn1c(=O)[nH]c(=O)c2c(C(=O)N3CCC3)c(Cc3ccccc3C(F)(F)F)sc21 |  |  |  |  | > 200 | > 1000 |  |  |  | inhibition [6]: Active
3 | CC(C)Cn1c(=O)n(C)c(=O)c2cn(Cc3cccc4ccccc34)cc21 |  |  |  |  | 15.5 | 56.2 |  |  |  | Ki [8]: 46.8 nM
4 | CC(C)Cn1c(=O)n(C)c(=O)c2c(SCCCO)n(Cc3cccc4ccccc34)cc21 |  |  |  |  |  | 2.45 | Active | Active | Active | inhibition [11]: Active
5 | CC(C)Cn1c(=O)n(C)c(=O)c2c(C(=O)N3CC[C@@H](O)C3)c(Cc3ccnc4ccccc34)sc21 | 9.77 | 11.5 | 3.24 | 4.57 |  |  |  |  |  | 
6 | CC(C)Cc1nn(C)c(=O)c2c(SCCCO)n(Cc3cccc4ccccc34)cc12 | 1.35 | 0.794 | 0.38 | 0.55 |  |  | Active | Active | Active | inhibition [12]: Active; inhibition [13]: Active; ED50 [14]: 5 mg/kg/day
